# From patent US12037339B2, “Substituted imidazoles as GLP-1 receptor agonists” (Eccogene Inc., priority 2020, dated 2024)
# Columns and labels:
# [1] = biological target: T1, human OATP1B1 (Homo sapiens, UniProt Q9Y6L6); assay: OATP1B1 inhibition assay (HEK293 cells over-expressing human OATP1B1, substrate estradiol 17-β-D-glucuronide); assay type: cell-based; conditions: 30 min pre-incubation, 10 min coincubation with estradiol 17-β-D-glucuronide
# T1 sequence (Q9Y6L6 1-691): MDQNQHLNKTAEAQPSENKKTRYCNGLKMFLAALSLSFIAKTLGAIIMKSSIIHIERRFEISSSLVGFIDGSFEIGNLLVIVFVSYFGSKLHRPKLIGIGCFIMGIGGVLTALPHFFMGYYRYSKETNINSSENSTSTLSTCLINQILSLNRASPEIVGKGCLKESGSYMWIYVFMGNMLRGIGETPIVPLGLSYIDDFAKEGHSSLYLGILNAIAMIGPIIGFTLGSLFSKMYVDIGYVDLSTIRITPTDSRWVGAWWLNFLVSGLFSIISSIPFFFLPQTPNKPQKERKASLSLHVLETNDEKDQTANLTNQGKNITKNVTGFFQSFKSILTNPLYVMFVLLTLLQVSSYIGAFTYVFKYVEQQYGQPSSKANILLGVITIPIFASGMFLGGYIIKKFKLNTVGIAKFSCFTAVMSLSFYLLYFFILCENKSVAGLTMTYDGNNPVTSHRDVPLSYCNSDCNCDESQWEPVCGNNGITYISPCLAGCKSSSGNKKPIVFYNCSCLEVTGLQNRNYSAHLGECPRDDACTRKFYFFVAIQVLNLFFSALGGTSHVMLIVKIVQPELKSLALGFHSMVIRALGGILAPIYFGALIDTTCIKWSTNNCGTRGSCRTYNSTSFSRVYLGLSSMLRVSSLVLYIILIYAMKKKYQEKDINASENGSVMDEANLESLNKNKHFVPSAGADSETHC
# Method: HEK293 cells over-expressing human OATP1B1 were used for determining the inhibitory effect of compounds of the application on OATP1B1-mediated transportation. Cells were seeded at a density of 400,000 cells per well in 24-well plates. When reaching confluence of 80˜90%, cells were washed with pre-warmed assay buffer and then pre-incubated with serially diluted test compounds or negative control (NC) or positive inhibitor (PC, Rifampicin) for 30 min, followed by coincubation with the same test compound and OATP1B1 substrate estradiol 17-β-D-glucuronide for 10 min. Cells were washed with pre-cooled buffer, and lysed by freeze-thaw cycles. After extraction by mixture of […] of methanol, the substrate concentration was determined by LC-MS/MS, and protein concentration was determined by BCA method. The substrate transport velocity U is calculated as U=Clysate/(P*T), where Clysate is substrate concentration in lysate, P is protein concentration in lysate, and T is incubation time. Relative transport activity Y is calculated as Y=UTA/UNC. The IC50 value of the tested compounds was calculated by fitting Y to compound concentration using a 4-parameter non-linear regression routine in Prism.
# [2] = biological target: (Homo sapiens, UniProt P43220); assay: h-GLP-1 activity assay (cAMP HTRF, HEK293 cells with stable expression of human GLP-1); assay type: cell-based; conditions: relative EC50, 10 nM human GLP-1 set as 100% response, 30 min at 37° C.
# (Homo sapiens, UniProt P43220), sequence (P43220 24-463): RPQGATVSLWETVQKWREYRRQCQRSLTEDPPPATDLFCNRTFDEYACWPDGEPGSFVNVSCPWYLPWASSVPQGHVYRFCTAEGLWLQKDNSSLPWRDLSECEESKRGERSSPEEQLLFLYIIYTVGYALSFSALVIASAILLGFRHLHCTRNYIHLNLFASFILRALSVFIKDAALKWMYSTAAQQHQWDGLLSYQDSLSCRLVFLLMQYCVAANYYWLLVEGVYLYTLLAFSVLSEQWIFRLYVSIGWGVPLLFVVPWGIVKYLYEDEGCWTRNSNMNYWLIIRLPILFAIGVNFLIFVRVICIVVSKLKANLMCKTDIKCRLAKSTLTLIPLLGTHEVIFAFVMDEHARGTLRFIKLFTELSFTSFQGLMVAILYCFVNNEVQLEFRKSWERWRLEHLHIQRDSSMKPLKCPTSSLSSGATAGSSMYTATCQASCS
# In short: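 cAMP accumulation (HTRF, 665/615 nm, interpolated from standard curve) after 30 min, 37 °C compound treatment of stable human GLP-1 HEK293 cells with 0.5 mM IBMX. EC50 by 4-parameter regression, reported relative to 10 nM GLP-1 (7-37) as full response.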
# [3] = Pharmacokinetics after oral gavage in fasted SD rats; assay type: in vivo; conditions: rat, 5 mg/kg, plasma
# Method: Compounds of the present application were formulated in 10% DMSO/10%/Cremophor EL/15% PEG400/65% 100 mM Glycine-NaOH pH 10, and administered via oral gavage (P0) at the dosages of 5 or 10 mg per kilogram body weight in fasted SD rats. Plasma samples were collected at 0.25, 0.5, 1, 2, 4, 6, 8, and 24 hours post dosing. Compound concentration was determined by LC-MS and pharmacokinetics parameters were calculated by WinNonlin 8.2 using Non-Compartmental Analysis model.
IC50 [1] [µM],EC50 [2] [µM],AUC [3] [ng·h/mL],Cmax [3] [ng/mL],bioavailability [3] [%],Compound
> 1,< 0.02,–,–,–,"Cc1cc(-n2nc3c(c2-n2ccn(-c4ccc5c(cnn5C)c4F)c2=O)[C@H](C)N(C(=O)c2cc4cc([C@@H]5CCOC(C)(C)C5)ccn4c2C2(c4noc(=O)[nH]4)CC2)CC3)cc(C)c1F (single isomer, unassigned) [Compound 10]"
> 1,< 0.02,3000,572,26,"Cc1cc(-n2nc3c(c2-n2ccn(-c4ccc5c(cnn5C)c4F)c2=O)[C@H](C)N(C(=O)c2cn4cc([C@@H]5CCOC(C)(C)C5)ccc4c2C2(c4noc(=O)[nH]4)CC2)CC3)cc(C)c1F (single isomer, unassigned) [Compound 19]"
> 1,< 0.02,10200,1700,90,"C[C@H]1c2c(nn(-c3ccc(F)c(C4CC4)c3)c2-n2ccn(-c3ccc4c(cnn4C)c3F)c2=O)CCN1C(=O)c1cc2cc([C@@H]3CCOC(C)(C)C3)ccn2c1C1(c2noc(=O)[nH]2)CC1 (single isomer, unassigned) [Compound 73]"
> 1,< 0.02,5320,962,30,"C[C@H]1c2c(nn(-c3ccc(F)c(C4CC4)c3)c2-n2ccn(-c3ccc4c(cnn4C)c3F)c2=O)CCN1C(=O)c1cn2cc([C@@H]3CCOC(C)(C)C3)ccc2c1C1(c2noc(=O)[nH]2)CC1 (single isomer, unassigned) [Compound 76]"
> 1,< 0.02,3340,1370,59,"C[C@H]1c2c(nn(-c3ccc(F)c(C4CC4)c3)c2-n2ccn(-c3ccc4c(cnn4C)c3F)c2=O)CCN1C(=O)c1cn2nc([C@@H]3CCOC(C)(C)C3)ccc2c1C1(c2noc(=O)[nH]2)CC1 (single isomer, unassigned) [Compound 90]"
> 1,< 0.02,2660,738,22,"C[C@H]1c2c(nn(-c3ccc(F)c(C4CC4)c3)c2-n2ccn(-c3ccc4c(cnn4C)c3F)c2=O)CCN1C(=O)c1cn2cc([C@H]3CCOC(C)(C)C3)cc(F)c2c1C1(c2noc(=O)[nH]2)CC1 (single isomer, unassigned) [Compound 91]"
–,> 0.1,–,–,–,"Cc1cc(-n2nc3c(c2-n2ccn(-c4ccc5c(cnn5C)c4F)c2=O)CN(C(=O)c2cc4cc(C5CCOCC5)ccc4n2-c2ccccc2-c2noc(=O)[nH]2)CC3)cc(C)c1F [Compound 37, 3-(2-(2-(3-(3-(4-fluoro-1-methyl-1H-indazol-5-yl)-2-oxo-2,3-dihydro-1H-imidazol-1-yl)-2-(4-fluoro-3,5-dimethylphenyl)-4,5,6,7-tetrahydro-2H-pyrazolo[4,3-c]pyridine-5-carbonyl)-5-(tetrahydro-2H-pyran-4-yl)-1H-indol-1-yl)phenyl)-1,2,4-oxadiazol-5(4H)-one]"
–,> 0.1,–,–,–,"Cn1ncc2c(F)c(-n3ccn(-c4c(-c5ccc(F)cc5)nn5c4CN(C(=O)c4cc6cc(C7CCOCC7)ccc6n4-c4ccccc4C(=O)O)CC5)c3=O)ccc21 [Compound 55, 2-(2-(3-(3-(4-fluoro-1-methyl-1H-indazol-5-yl)-2-oxo-2,3-dihydro-1H-imidazol-1-yl)-2-(4-fluorophenyl)-4,5,6,7-tetrahydropyrazolo[1,5-a]pyrazine-5-carbonyl)-5-(tetrahydro-2H-pyran-4-yl)-1H-indol-1-yl)benzoic acid]"
–,< 0.02,–,–,–,"Cc1cc(-n2nc3c(c2-n2ccn(-c4ccc5c(cnn5C)c4F)c2=O)[C@H](C)N(C(=O)c2cc4cc(C5CCOCC5)ccc4n2-c2cccc(C(=O)O)c2)CC3)cc(C)c1F [Compound 56, (S)-3-(2-(3-(3-(4-fluoro-1-methyl-1H-indazol-5-yl)-2-oxo-2,3-dihydro-1H-imidazol-1-yl)-2-(4-fluoro-3,5-dimethylphenyl)-4-methyl-4,5,6,7-tetrahydro-2H-pyrazolo[4,3-c]pyridine-5-carbonyl)-5-(tetrahydro-2H-pyran-4-yl)-1H-indol-1-yl)benzoic acid]"
–,> 0.1,–,–,–,"COCc1ccc(-n2ccn(-c3c4c(nn3-c3cc(C)c(F)c(C)c3)CCN(C(=O)c3cc5cc(C6CCOCC6)ccc5n3-c3ccccc3C(=O)O)[C@H]4C)c2=O)cc1 [Compound 57, (S)-2-(2-(2-(4-fluoro-3,5-dimethylphenyl)-3-(3-(4-(methoxymethyl)phenyl)-2-oxo-2,3-dihydro-1H-imidazol-1-yl)-4-methyl-4,5,6,7-tetrahydro-2H-pyrazolo[4,3-c]pyridine-5-carbonyl)-5-(tetrahydro-2H-pyran-4-yl)-1H-indol-1-yl)benzoic acid]"
–,< 0.02,–,–,–,"Cc1cc(-c2ccc3c(c2)cc(C(=O)N2CCn4nc(-c5ccc(F)cc5)c(-n5ccn(-c6ccc7c(cnn7C)c6F)c5=O)c4C2)n3Cc2noc(=O)[nH]2)ccn1 [Compound 58, 3-((2-(3-(3-(4-fluoro-1-methyl-1H-indazol-5-yl)-2-oxo-2,3-dihydro-1H-imidazol-1-yl)-2-(4-fluorophenyl)-4,5,6,7-tetrahydropyrazolo[1,5-a]pyrazine-5-carbonyl)-5-(2-methylpyridin-4-yl)-1H-indol-1-yl)methyl)-1,2,4-oxadiazol-5(4H)-one]"
–,> 0.1,–,–,–,"Cc1cc(-n2nc3c(c2-n2ccn(-c4ccc5c(cnn5C)c4F)c2=O)CN(C(=O)c2cc4cc(C5CCOCC5)ccc4n2-c2cccc4[nH]nnc24)CC3)cc(C)c1F [Compound 59, 1-(5-(1-(1H-benzo[d][1,2,3]triazol-4-yl)-5-(tetrahydro-2H-pyran-4-yl)-1H-indole-2-carbonyl)-2-(4-fluoro-3,5-dimethylphenyl)-4,5,6,7-tetrahydro-2H-pyrazolo[4,3-c]pyridin-3-yl)-3-(4-fluoro-1-methyl-1H-indazol-5-yl)-1,3-dihydro-2H-imidazol-2-one]"
